Data as given in ChEMBL document CHEMBL3046128, “Sustainable synthesis of flavonoid derivatives, QSAR study and insecticidal activity against the fall armyworm, Spodoptera frugiperda (Lep.: Noctuidae)” (2010).

These compounds were tested on Spodoptera frugiperda (assay: Insecticidal activity against first-instar larval-stage of Spodoptera frugiperda (fall armyworm) strain corn in compound-pretreated corn leaves assessed as mortality rate at 2000 mg/kg).
Type: functional

| Compound | LT50 | log10LT50 |
| --- | --- | --- |
| O=c1cc(-c2ccccc2)oc2cc(O)ccc12 [7-HYDROXYFLAVONE] | 106.94 h | 2.029 |
| Cc1ccc2c(=O)cc(-c3ccccc3)oc2c1 [7-METHYLFLAVONE] | 105.46 h | 2.023 |
| Cc1ccc2oc(-c3ccccc3)cc(=O)c2c1 [6-METHYLFLAVONE] | 93 h | 1.968 |
| O=c1cc(-c2ccccc2)oc2cc(Br)ccc12 [7-BROMOFLAVONE] | 89.73 h | 1.953 |
| O=c1cc(-c2ccccc2)oc2ccc(Br)cc12 [6-BROMOFLAVONE] | 43.86 h | 1.642 |
| O=C1CC(c2ccccc2)Oc2ccccc21 (stereo not given) [FLAVANONE] |  | 1.656 |
| O=c1cc(-c2ccccc2)oc2cc(F)ccc12 [7-FLUOROFLAVONE] | 63.76 h | 1.805 |
| O=c1cc(-c2ccccc2)oc2ccccc12 [FLAVONE] | 51.19 h | 1.709 |
| O=c1c2ccccc2oc2ccccc12 [XANTHONE] | 53.78 h | 1.731 |
| O=c1cc(-c2ccccc2)oc2cc(Cl)ccc12 [7-CHLOROFLAVONE] | 29.33 h | 1.467 |
| COc1ccc2c(=O)cc(-c3ccccc3)oc2c1 [7-METHOXYFLAVONE] | 114.38 h | 2.058 |
| O=c1ccoc2ccccc12 [CHROMONE] | 55.42 h | 1.744 |
| O=c1cc(-c2ccccc2)oc2ccc(Cl)cc12 [6-CHLOROFLAVONE] | 53.36 h | 1.727 |
